One assay has as its target T1, human D2R long isoform (Homo sapiens, UniProt P14416).
T1 construct: host or cells: CHO-K1
In words: DiscoverX PathHunter β-arrestin recruitment assay, D2R. Format: cell-based. As to conditions: triazole; antagonist; read-out: potency, β-arrestin recruitment at the D2R. How it is done:
(§1) Luminescence was measured on a Hamamatsu FDSS μCell reader.
(§2) Efficacy/antagonist % (Ant. %) values were obtained from nonlinear regression of meaned data obtained from at least three independent experiments with triplicate measures. Values are presented as means±SEM.
On the technique in general: Arrestin recruitment assays detect the binding of arrestin to an activated receptor.

The target in another assay is T2, human D3R (Homo sapiens, UniProt P35462).
T2 construct: host or cells: CHO-K1
T2 sequence (P35462 whole entry): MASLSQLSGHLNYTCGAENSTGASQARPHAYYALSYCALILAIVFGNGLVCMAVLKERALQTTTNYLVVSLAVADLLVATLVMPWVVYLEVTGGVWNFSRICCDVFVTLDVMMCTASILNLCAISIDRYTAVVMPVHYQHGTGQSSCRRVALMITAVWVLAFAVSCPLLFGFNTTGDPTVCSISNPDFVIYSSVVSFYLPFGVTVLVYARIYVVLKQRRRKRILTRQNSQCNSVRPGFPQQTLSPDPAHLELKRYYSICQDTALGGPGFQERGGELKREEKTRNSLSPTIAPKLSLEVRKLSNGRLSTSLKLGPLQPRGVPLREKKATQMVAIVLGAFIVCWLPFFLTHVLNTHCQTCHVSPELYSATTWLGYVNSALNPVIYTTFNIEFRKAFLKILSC
In words: DiscoverX PathHunter β-arrestin recruitment assay, D3R. The conditions noted are these: triazole; antagonist; read-out: potency, β-arrestin recruitment at the D3R. Format: cell-based. The protocol: as §1, §2

The source of these data is patent US20260159503A1, “1,2,3-TRIAZOLE LINKER-CONTAINING COMPOUNDS” (HIGH POINT UNIVERSITY, priority 2024, published 2026).

Each structure is given as a SMILES string.

T1 sequence (P14416 whole entry, canonical isoform): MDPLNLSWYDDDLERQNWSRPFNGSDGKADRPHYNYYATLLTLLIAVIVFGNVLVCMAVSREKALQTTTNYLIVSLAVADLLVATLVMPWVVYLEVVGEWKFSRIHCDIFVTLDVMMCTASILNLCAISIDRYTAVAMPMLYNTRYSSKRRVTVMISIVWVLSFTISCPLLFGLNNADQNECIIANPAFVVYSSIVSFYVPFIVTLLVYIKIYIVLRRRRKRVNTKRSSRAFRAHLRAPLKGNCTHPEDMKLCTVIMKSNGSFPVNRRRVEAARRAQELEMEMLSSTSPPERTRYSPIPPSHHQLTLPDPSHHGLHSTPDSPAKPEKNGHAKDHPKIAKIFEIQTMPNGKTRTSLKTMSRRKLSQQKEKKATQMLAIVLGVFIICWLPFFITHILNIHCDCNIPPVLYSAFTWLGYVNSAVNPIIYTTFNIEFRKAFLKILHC

Regarding `Cc1cccc(-n2cc(CN3CCC(c4ccccc4)CC3)nn2)c1` [Compound 14, 4-phenyl-1-((1-(m-tolyl)-1H-1,2,3-triazol-4-yl)methyl)piperidine], the IC50 at human D2R long isoform and on human D3R was above 6 µM in each case.
